{"source": "patent US4348410A", "about": "“Cyclohexane carboxylic acid derivatives” (Nippon Chemiphar Co., Ltd., priority 1979, dated 1982)", "key": {"[1]": {"tested_on": "acetic acid ulcers", "assay": "Acetic acid ulcers", "type": "in vivo, Male Sprague-Dawley strain rats", "settings": "for Ulcer Grade 1 (number of rats): ulcer area 0-10 mm^2; for Ulcer Grade 2 (number of rats): ulcer area 11-20 mm^2; for Ulcer Grade 3 (number of rats): ulcer area 21-30 mm^2; for Ulcer Grade 4 (number of rats): ulcer area 31-40 mm^2; for Ulcer Grade 5 (number of rats): ulcer area >40 mm^2", "experimental": "Male Sprague-Dawley strain rats, weighing about 200 g were used. Under ether anesthesia 10% acetic acid solution (0.05 ml) was injected carefully between the serous membrane and the muscle near the pylorus, and the abdomen was closed. Thereafter, the animals were maintained under conditions and administered 1 ml/100 g of each test drug dissolved or suspended in 0.5% carboxymethylcellulose solution p.o. daily×10 starting from the next day of the operation. On the 11th day, the rats were sacrificed under ether anesthesia, and the stomachs were removed. The area of the ulcer was measured and graded into 5 degrees as an ulcer index according to the following method: […]"}, "[2]": {"assay": "Acute toxicity", "settings": "mouse, in vivo, po, 7 days observation", "experimental": "[…]. The test drugs were given orally using gastric sonde. […] The LD50 value was calculated by the Probit method (C.I. Bliss)."}, "[3]": {"tested_on": "Shay ulcers", "assay": "Shay ulcers (pylorus ligation)", "type": "in vivo, Male Sprague-Dawley strain rats", "settings": "for Ulcer Grade 0 (number of rats): 0=no lesion; for Ulcer Grade 1 (number of rats): 1=hemorrhagic suffusion; for Ulcer Grade 2 (number of rats): 2=1-5 small ulcers (<3 mm); for Ulcer Grade 3 (number of rats): 3=many small ulcers (more than 5) or 1 ulcer of marked size; for Ulcer Grade 4 (number of rats): 4=many ulcers of marked size; for Ulcer Grade 5 (number of rats): 5=perforated ulcer", "experimental": "The rats were sacrificed 18 hours later by an overdose of ether and the stomach removed. The stomach was incised along the greater curvature and the surface area of each lesion in forestomach was measured by the naked eye. […] 4=many ulcers of marked size 5=perforated ulcer The test drugs were given intraperitoneally, immediately after pylorus ligation."}}, "note": "Read-outs that look alike come from different tables or passages of the source.", "data": [{"smiles": "N=C(N)NC[C@H]1CC[C@H](C(=O)Oc2ccccc2C(=O)OCc2ccccc2)CC1", "note": "[Compound 1]", "values": [{"measurement": "Ulcer Grade 1 (number of rats)", "setting": "[1]; 125 mg/kg p.o. daily×10", "value": 15}, {"measurement": "Ulcer Grade 2 (number of rats)", "setting": "[1]; 125 mg/kg p.o. daily×10", "value": 1}, {"measurement": "Ulcer Grade 3 (number of rats)", "setting": "[1]; 125 mg/kg p.o. daily×10", "value": 2}, {"measurement": "Ulcer Grade 4 (number of rats)", "setting": "[1]; 125 mg/kg p.o. daily×10", "value": 0}, {"measurement": "Ulcer Grade 5 (number of rats)", "setting": "[1]; 125 mg/kg p.o. daily×10", "value": 0}, {"measurement": "Ulcer Grade 1 (number of rats)", "setting": "[1]; 250 mg/kg p.o. daily×10", "value": 14}, {"measurement": "Ulcer Grade 2 (number of rats)", "setting": "[1]; 250 mg/kg p.o. daily×10", "value": 1}, {"measurement": "Ulcer Grade 3 (number of rats)", "setting": "[1]; 250 mg/kg p.o. daily×10", "value": 1}, {"measurement": "Ulcer Grade 4 (number of rats)", "setting": "[1]; 250 mg/kg p.o. daily×10", "value": 0}, {"measurement": "Ulcer Grade 5 (number of rats)", "setting": "[1]; 250 mg/kg p.o. daily×10", "value": 0}, {"measurement": "Ulcer Grade 1 (number of rats)", "setting": "[1]; 500 mg/kg p.o. daily×10", "value": 16}, {"measurement": "Ulcer Grade 2 (number of rats)", "setting": "[1]; 500 mg/kg p.o. daily×10", "value": 2}, {"measurement": "Ulcer Grade 3 (number of rats)", "setting": "[1]; 500 mg/kg p.o. daily×10", "value": 0}, {"measurement": "Ulcer Grade 4 (number of rats)", "setting": "[1]; 500 mg/kg p.o. daily×10", "value": 0}, {"measurement": "Ulcer Grade 5 (number of rats)", "setting": "[1]; 500 mg/kg p.o. daily×10", "value": 0}, {"measurement": "LD50 at 168 h", "setting": "[2]; female mice, read-out: LD50 Female", "value": "> 8000", "unit": "mg/kg"}, {"measurement": "LD50 at 168 h", "setting": "[2]; male mice, read-out: LD50 male", "value": 7600, "unit": "mg/kg"}, {"measurement": "Ulcer Grade 0 (number of rats)", "setting": "[3]; 75 mg/kg i.p.", "value": 8}, {"measurement": "Ulcer Grade 1 (number of rats)", "setting": "[3]; 75 mg/kg i.p.", "value": 0}, {"measurement": "Ulcer Grade 2 (number of rats)", "setting": "[3]; 75 mg/kg i.p.", "value": 2}, {"measurement": "Ulcer Grade 3 (number of rats)", "setting": "[3]; 75 mg/kg i.p.", "value": 0}, {"measurement": "Ulcer Grade 4 (number of rats)", "setting": "[3]; 75 mg/kg i.p.", "value": 0}, {"measurement": "Ulcer Grade 5 (number of rats)", "setting": "[3]; 75 mg/kg i.p.", "value": 0}, {"measurement": "Ulcer Grade 0 (number of rats)", "setting": "[3]; 150 mg/kg i.p.", "value": 10}, {"measurement": "Ulcer Grade 1 (number of rats)", "setting": "[3]; 150 mg/kg i.p.", "value": 0}, {"measurement": "Ulcer Grade 2 (number of rats)", "setting": "[3]; 150 mg/kg i.p.", "value": 0}, {"measurement": "Ulcer Grade 3 (number of rats)", "setting": "[3]; 150 mg/kg i.p.", "value": 0}, {"measurement": "Ulcer Grade 4 (number of rats)", "setting": "[3]; 150 mg/kg i.p.", "value": 0}, {"measurement": "Ulcer Grade 5 (number of rats)", "setting": "[3]; 150 mg/kg i.p.", "value": 0}, {"measurement": "Ulcer Grade 0 (number of rats)", "setting": "[3]; 300 mg/kg i.p.", "value": 7}, {"measurement": "Ulcer Grade 1 (number of rats)", "setting": "[3]; 300 mg/kg i.p.", "value": 0}, {"measurement": "Ulcer Grade 2 (number of rats)", "setting": "[3]; 300 mg/kg i.p.", "value": 0}, {"measurement": "Ulcer Grade 3 (number of rats)", "setting": "[3]; 300 mg/kg i.p.", "value": 0}, {"measurement": "Ulcer Grade 4 (number of rats)", "setting": "[3]; 300 mg/kg i.p.", "value": 0}, {"measurement": "Ulcer Grade 5 (number of rats)", "setting": "[3]; 300 mg/kg i.p.", "value": 0}]}]}
